According to US20160256433A1, “Formulations Containing Amorphous Dapagliflozin” (SANDOZ AG, priority 2013, published 2016):
≈ marks a conversion by molar mass, not a printed value. Like-named read-outs stand apart in the source and are kept apart here.

Assays:
[1] = for pH of suspension after 24 hours of testing: 37° C.
[2] = physchem; details: for solubility at 24 h: thermodynamic from solid
[3] = for water absorbed: at 80% relative air humidity (RH)
[4] = medium of pH 1.2, 37 °C, pH 1.2, simulated gastric fluid
[5] = medium of pH 6.8, 37 °C, pH 6.8, aqueous buffer

pH of suspension after 24 hours of testing ([1]; medium pH 1.2) | pH of suspension after 24 hours of testing ([1]; medium pH 6.8) | pH of suspension after 24 hours of testing ([1]; medium water) | solubility at 24 h [2, 4] [µg/mL] | solubility at 24 h [2, 5] [µg/mL] | solubility at 24 h ([2]; water, 37 °C) [µg/mL] | water absorbed [3] | SMILES | other results
1.2 | 6.7 | 7.4 | 1200 (≈ 2930 µM) | 1200 (≈ 2930 µM) | 1200 (≈ 2930 µM) | around 6% | CCOc1ccc(Cc2cc([C@@H]3OC(CO)[C@@H](O)C(O)C3O)ccc2Cl)cc1 (stereo partly drawn) [amorphous dapagliflozine, (2S,3R,4R,5S,6R)-2-[4-chloro-3-(4-ethoxybenzyl)phenyl]-6-(hydroxymethyl)tetrahydro-2H-pyran-3,4,5-triole] | Desciptive term (solubility) ([1]; medium pH 1.2): Slightly soluble; Desciptive term (solubility) ([1]; medium pH 3.0): Slightly soluble; pH of suspension after 24 hours of testing ([1]; medium pH 3.0): 2.9; Desciptive term (solubility) ([1]; medium pH 4.5): Slightly soluble; pH of suspension after 24 hours of testing ([1]; medium pH 4.5): 4.5; Desciptive term (solubility) ([1]; medium pH 6.8): Slightly soluble; Desciptive term (solubility) ([1]; medium pH 7.4): Very slightly soluble; pH of suspension after 24 hours of testing ([1]; medium pH 7.4): 7.2; Desciptive term (solubility) ([1]; medium water): Slightly soluble; solubility at 24 h ([2]; medium of pH 3.0, 37 °C, pH 3, aqueous buffer): 1100 µg/mL (≈ 2690 µM); solubility at 24 h ([2]; medium of pH 4.5, 37 °C, pH 4.5, aqueous buffer): 1200 µg/mL (≈ 2930 µM); solubility at 24 h ([2]; medium of pH 7.4, 37 °C, pH 7.4, aqueous buffer): 700 µg/mL (≈ 1710 µM); solubility ([2]; water): ~1000 µg/mL (≈ 2450 µM); water irreversibly absorbed ([3]; during the first sorption/desorption cycle): around 3%
1.3 | 6.8 | 3.2 | 1700 (≈ 4160 µM) | 1700 (≈ 4160 µM) | 1800 (≈ 4400 µM) | around 0.8% | CCOc1ccc(Cc2cc([C@@H]3O[C@H](CO)[C@@H](O)[C@H](O)[C@H]3O)ccc2Cl)cc1 | 
